Experiments:
[1] = target: CYP3A4 (Homo sapiens, UniProt P08684); assay: Measurement of CYP3A4 inhibitory activity (midazolam 1'-hydroxylation in human hepatic microsomes, DI and MBI); assay type: in vitro ADME; details: human hepatic (liver) microsomes, probe midazolam (1'-hydroxylation), inventive compounds (Table 4); for IC50 at 10 min: direct inhibition, midazolam, 37° C. 10 minutes, read-out: CYP3A inhibitory IC50 (μmol/L) DI; for IC50: mechanism based inhibition, pre-incubated 37° C. 30 minutes before midazolam, read-out: CYP3A inhibitory IC50 (μmol/L) MBI
Chain of CYP3A4 (P08684 2-503): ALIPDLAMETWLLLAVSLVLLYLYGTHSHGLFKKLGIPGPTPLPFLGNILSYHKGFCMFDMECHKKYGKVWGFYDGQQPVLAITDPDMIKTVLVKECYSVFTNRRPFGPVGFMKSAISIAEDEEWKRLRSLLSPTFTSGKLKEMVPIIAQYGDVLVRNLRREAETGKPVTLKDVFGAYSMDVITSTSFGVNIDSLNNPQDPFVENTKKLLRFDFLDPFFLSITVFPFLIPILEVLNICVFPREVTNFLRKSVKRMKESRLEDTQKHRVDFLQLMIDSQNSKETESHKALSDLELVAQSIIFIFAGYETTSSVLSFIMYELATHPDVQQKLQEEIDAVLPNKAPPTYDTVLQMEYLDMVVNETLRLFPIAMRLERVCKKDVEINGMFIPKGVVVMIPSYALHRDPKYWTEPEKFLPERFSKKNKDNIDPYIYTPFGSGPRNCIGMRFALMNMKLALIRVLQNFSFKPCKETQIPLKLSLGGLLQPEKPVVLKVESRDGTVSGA
Protocol: The measurement of CYP3A4 inhibitory activity was performed with reference to the method of Newton et al. (Drug Metab. Dispos. 23, 154-158 (1995)) and the method described in JP 2007-236327 A.
A reaction mixture was prepared by mixing the compound of the present invention with midazolam as a typical substrate for CYP3A4 (see Food and Drug Administration (FDA) Guidance for Industry Drug Interaction Studies—Study Design, Data Analysis, Implications for Dosing, and Labeling Recommendations. FDA web site [online], www.fda.gov/downloads/drugs/guidancecomplianceregulatoryinformation/guidances/ucm292362.pdf), coenzyme NADPH-generating system, human hepatic microsomes, and a phosphate buffer. The reaction mixture was incubated at 37° C. for 10 minutes.
The coenzyme NADPH-generating system solution was prepared by mixing the materials shown in Table 1: the 13 mmol/L β-NADP^+ solution, the 33 mmol/L G-6-P solution, the solution of 10 U/mL G6PDH (Y) (manufactured by Oriental Yeast Co., Ltd.), and the 33 mmol/L MgCl2 solution in a ratio of 1:1:0.4:1 (v:v:v:v). […] The final concentrations of the compounds of the present invention and the comparative compounds were set at the levels considered to be necessary for the calculation of the IC50 values based on the results of the measurement performed at an arbitrary concentration in advance.
After the incubation, the reaction was quenched by the addition of an acetonitrile solution to the reaction mixture. The amount of 1′-hydroxymidazolam produced (the metabolite produced from midazolam by CYP3A4) was measured in the quenched sample with a high-performance liquid chromatography tandem mass spectrometer (LC-MS/MS). Each IC50 value for DI (direct inhibition) was determined from the amount of the produced 1′-hydroxymidazolam and the final concentration of the compound of the present invention or the comparative compound in the reaction mixture.
MBI (mechanism based inhibition) was evaluated as follows. After the reaction mixture not containing midazolam (but containing the compound of the present invention or the comparative compound, the coenzyme NADPH-generating system, the human hepatic microsomes, and the phosphate buffer) was pre-incubated at 37° C. for 30 minutes, midazolam was added to the reaction mixture. The reaction mixture was then incubated at 37° C. for 10 minutes. Subsequently, the reaction was quenched by the addition of an acetonitrile solution to the reaction mixture. The amount of 1′-hydroxymidazolam produced was measured in the quenched sample with an LC-MS/MS. As in the case of DI, each IC50 value for MBI was determined from the amount of the produced 1′-hydroxymidazolam and the final concentration of the compound of the present invention or the comparative compound in the reaction mixture.

[2] = system: cathepsin K; assay: Measurement of cathepsin K inhibitory activity (decomposition of fluorescent substrate Z-Gly-Pro-Arg-MCA); assay type: biochemical
Protocol: Cathepsin K was prepared as follows. […] Specifically, the decomposition of 20 μM Z-Gly-Pro-Arg-MCA by cathepsin K was measured in 100 mM potassium sodium phosphate, 1 mM EDTA, 8 mM Cysteine, pH 6.0. The reaction was performed at 37° C. for 30 minutes and then quenched by the addition of 2×10^−5 M of calpeptin.

| IC50 at 10 min [1] [µmol/L] | IC50 [1] [µmol/L] | CYP/CatK [2] | SMILES |
| --- | --- | --- | --- |
| 43.5 | 44.4 | 56555 | CC(C)[C@H](NC(=O)C1(NC(=O)N2CCSC2)CCCCC1)C(=O)C(=O)N[C@H]1CCCCNC1=O [Compound 1] |
| 101 | 73.1 | 52214 | CC(C)[C@H](NC(=O)C1(NC(=O)N2CCCC2)CCCCC1)C(=O)C(=O)N[C@H]1CCCCNC1=O [Compound 2] |
| 208 | 137 | 40294 | CC(C)[C@H](NC(=O)C1(NC(=O)[C@H]2CCCO2)CCCCC1)C(=O)C(=O)N[C@H]1CCCCNC1=O [Compound 3] |

Reference: US9562042B2, “α-oxoacyl amino-caprolactam” (Seikagaku Corporation, priority 2013, dated 2017)
